Species: Rattus norvegicus
Test: Open TG-GATES - Regimen: Single
Assay type: toxicity, organism-based, Sprague-Dawley
Parameters: regimen Single, gender Male, age 6 weeks
Settings: in vivo, po, 15 mg/kg, route gavage, dose level Low; for APTT / Bas / Eos / Fbg / Hb / Ht / Lym / MCH / MCHC / MCV / Mono / Neu / PT / Plat / RBC / Ret / WBC: tissue Blood; for KIDNEY_L / KIDNEY_R / KIDNEY_TOTAL: tissue Kidney; for LIVER: tissue Liver; for A/G / ALP / ALT / AST / BUN / CRE / Ca / Cl / DBIL / GLC / IP / K / LDH / Na / PL / RALB / TBIL / TC / TG / TP / gamma-GTP: tissue Plasma

Nc1nc(N)c2nc(-c3ccccc3)c(N)nc2n1
TERMINAL_BW (3 h): 213.1 g
APTT (3 h): 16.6 s
Bas (3 h): 0%
Eos (3 h): 1%
Fbg (3 h): 307 mg/dL
Hb (3 h): 14.2 g/dL
Ht (3 h): 42.9%
Lym (3 h): 78.2%
MCH (3 h): 21.5 pg
MCHC (3 h): 33%
MCV (3 h): 65.1 fL
Mono (3 h): 3.4%
Neu (3 h): 17%
PT (3 h): 14.3 s
Plat (3 h): 129.9 x10_4/uL
RBC (3 h): 659.2 x10_4/ul
Ret (3 h): 7.7%
WBC (3 h): 86.3 x10_2/uL
KIDNEY_L (3 h): 1 g
KIDNEY_R (3 h): 1 g
KIDNEY_TOTAL (3 h): 2 g
LIVER (3 h): 9.6 g
A/G (3 h): 0.9
ALP (3 h): 1340.6 IU/L
ALT (3 h): 39.8 IU/L
AST (3 h): 73.2 IU/L
BUN (3 h): 10.4 mg/dL
CRE (3 h): 0.2 mg/dL
Ca (3 h): 11 mg/dL
Cl (3 h): 105.2 meq/L
DBIL (3 h): 0.008 mg/dL
GLC (3 h): 170.2 mg/dL
IP (3 h): 8.6 mg/dL
K (3 h): 4.6 meq/L
LDH (3 h): 56.2 IU/L
Na (3 h): 141.2 meq/L
PL (3 h): 144 mg/dL
RALB (3 h): 2.7 g/dL
TBIL (3 h): 0.05 mg/dL
TC (3 h): 76.2 mg/dL
TG (3 h): 81.4 mg/dL
TP (3 h): 5.6 g/dL
gamma-GTP (3 h): 1.2 IU/L
TERMINAL_BW (6 h): 211.9 g
APTT (6 h): 16.3 s
Bas (6 h): 0.4%
Eos (6 h): 1%
Fbg (6 h): 292.4 mg/dL
Hb (6 h): 13.8 g/dL
Ht (6 h): 41.6%
Lym (6 h): 76%
MCH (6 h): 21.2 pg
MCHC (6 h): 33.2%
MCV (6 h): 63.9 fL
Mono (6 h): 2.6%
Neu (6 h): 19.6%
PT (6 h): 14.3 s
Plat (6 h): 117.9 x10_4/uL
RBC (6 h): 651.8 x10_4/ul
Ret (6 h): 7.8%
WBC (6 h): 88.3 x10_2/uL
KIDNEY_L (6 h): 1 g
KIDNEY_R (6 h): 1 g
KIDNEY_TOTAL (6 h): 1.9 g
LIVER (6 h): 9 g
A/G (6 h): 1
ALP (6 h): 1353.4 IU/L
ALT (6 h): 38.2 IU/L
AST (6 h): 72.8 IU/L
BUN (6 h): 9.2 mg/dL
CRE (6 h): 0.2 mg/dL
Ca (6 h): 10.8 mg/dL
Cl (6 h): 105.6 meq/L
DBIL (6 h): 0.008 mg/dL
GLC (6 h): 167.8 mg/dL
IP (6 h): 9.9 mg/dL
K (6 h): 4.4 meq/L
LDH (6 h): 56.4 IU/L
Na (6 h): 142.6 meq/L
PL (6 h): 138.4 mg/dL
RALB (6 h): 2.6 g/dL
TBIL (6 h): 0.062 mg/dL
TC (6 h): 77 mg/dL
TG (6 h): 49.8 mg/dL
TP (6 h): 5.4 g/dL
gamma-GTP (6 h): 1.2 IU/L
TERMINAL_BW (9 h): 206.1 g
APTT (9 h): 16.7 s
Bas (9 h): 0%
Eos (9 h): 0.8%
Fbg (9 h): 322.4 mg/dL
Hb (9 h): 14 g/dL
Ht (9 h): 42.2%
Lym (9 h): 77.6%
MCH (9 h): 21.2 pg
MCHC (9 h): 33.2%
MCV (9 h): 64 fL
Mono (9 h): 2.4%
Neu (9 h): 18.2%
PT (9 h): 13.9 s
Plat (9 h): 128.2 x10_4/uL
RBC (9 h): 659.6 x10_4/ul
Ret (9 h): 7.5%
WBC (9 h): 82.6 x10_2/uL
KIDNEY_L (9 h): 1 g
KIDNEY_R (9 h): 1 g
KIDNEY_TOTAL (9 h): 2 g
LIVER (9 h): 8.3 g
A/G (9 h): 0.9
ALP (9 h): 1426 IU/L
ALT (9 h): 39 IU/L
AST (9 h): 67.4 IU/L
BUN (9 h): 9.2 mg/dL
CRE (9 h): 0.2 mg/dL
Ca (9 h): 10.8 mg/dL
Cl (9 h): 106.2 meq/L
DBIL (9 h): 0.006 mg/dL
GLC (9 h): 163 mg/dL
IP (9 h): 9.9 mg/dL
K (9 h): 4.1 meq/L
LDH (9 h): 47.8 IU/L
Na (9 h): 143 meq/L
PL (9 h): 144 mg/dL
RALB (9 h): 2.7 g/dL
TBIL (9 h): 0.056 mg/dL
TC (9 h): 84.8 mg/dL
TG (9 h): 41.4 mg/dL
TP (9 h): 5.5 g/dL
gamma-GTP (9 h): 1.2 IU/L
TERMINAL_BW (24 h): 226.6 g
APTT (24 h): 19 s
Bas (24 h): 0%
Eos (24 h): 1%
Fbg (24 h): 289.6 mg/dL
Hb (24 h): 14 g/dL
Ht (24 h): 41.7%
Lym (24 h): 83.6%
MCH (24 h): 21.1 pg
MCHC (24 h): 33.6%
MCV (24 h): 62.7 fL
Mono (24 h): 1.6%
Neu (24 h): 12.8%
PT (24 h): 14 s
Plat (24 h): 121.6 x10_4/uL
RBC (24 h): 664.8 x10_4/ul
Ret (24 h): 6.2%
WBC (24 h): 84.7 x10_2/uL
KIDNEY_L (24 h): 1 g
KIDNEY_R (24 h): 1 g
KIDNEY_TOTAL (24 h): 2 g
LIVER (24 h): 10.5 g
A/G (24 h): 0.9
ALP (24 h): 1713.2 IU/L
ALT (24 h): 44.8 IU/L
AST (24 h): 67.4 IU/L
BUN (24 h): 15.2 mg/dL
CRE (24 h): 0.2 mg/dL
Ca (24 h): 11 mg/dL
Cl (24 h): 105.4 meq/L
DBIL (24 h): 0.012 mg/dL
GLC (24 h): 183.2 mg/dL
IP (24 h): 8.3 mg/dL
K (24 h): 4.1 meq/L
LDH (24 h): 58.4 IU/L
Na (24 h): 143.6 meq/L
PL (24 h): 153.2 mg/dL
RALB (24 h): 2.7 g/dL
TBIL (24 h): 0.044 mg/dL
TC (24 h): 79.4 mg/dL
TG (24 h): 87.8 mg/dL
TP (24 h): 5.4 g/dL
gamma-GTP (24 h): 1 IU/L
